# Experimental data: ChEMBL document CHEMBL5442219
# How the values were obtained:
# Conditions in all cases: Compound concentration 10 µM
# [1] = target: D(3) dopamine receptor (Homo sapiens) (UniProt P35462)
# [2] = target: Histamine H4 receptor (Homo sapiens) (UniProt Q9H3N8)
# [3] = target: Sigma non-opioid intracellular receptor 1 (Homo sapiens) (UniProt Q99720)
# [4] = target: Kappa-type opioid receptor (Homo sapiens) (UniProt P41145)
# [5] = target: Histamine H1 receptor (Homo sapiens) (UniProt P35367)
# Chain of Histamine H1 receptor (Homo sapiens) (P35367 whole entry): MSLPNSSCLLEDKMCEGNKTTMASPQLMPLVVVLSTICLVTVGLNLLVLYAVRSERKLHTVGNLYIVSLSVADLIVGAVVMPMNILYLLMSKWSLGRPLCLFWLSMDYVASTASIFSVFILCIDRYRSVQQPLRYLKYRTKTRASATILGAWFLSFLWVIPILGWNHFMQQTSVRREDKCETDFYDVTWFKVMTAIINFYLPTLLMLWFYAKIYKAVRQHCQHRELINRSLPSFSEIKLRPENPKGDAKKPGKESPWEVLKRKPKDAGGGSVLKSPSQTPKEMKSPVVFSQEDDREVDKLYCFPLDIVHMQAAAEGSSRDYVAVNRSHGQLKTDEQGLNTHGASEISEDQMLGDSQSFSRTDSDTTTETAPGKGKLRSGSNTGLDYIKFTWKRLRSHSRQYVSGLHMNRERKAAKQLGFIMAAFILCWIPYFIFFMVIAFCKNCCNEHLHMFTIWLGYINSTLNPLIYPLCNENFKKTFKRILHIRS
# [6] = target: 5-hydroxytryptamine receptor 2A (Homo sapiens) (UniProt P28223)
# [7] = target: D(2) dopamine receptor (Homo sapiens) (UniProt P14416)
# Chain of D(2) dopamine receptor (Homo sapiens) (P14416 whole entry): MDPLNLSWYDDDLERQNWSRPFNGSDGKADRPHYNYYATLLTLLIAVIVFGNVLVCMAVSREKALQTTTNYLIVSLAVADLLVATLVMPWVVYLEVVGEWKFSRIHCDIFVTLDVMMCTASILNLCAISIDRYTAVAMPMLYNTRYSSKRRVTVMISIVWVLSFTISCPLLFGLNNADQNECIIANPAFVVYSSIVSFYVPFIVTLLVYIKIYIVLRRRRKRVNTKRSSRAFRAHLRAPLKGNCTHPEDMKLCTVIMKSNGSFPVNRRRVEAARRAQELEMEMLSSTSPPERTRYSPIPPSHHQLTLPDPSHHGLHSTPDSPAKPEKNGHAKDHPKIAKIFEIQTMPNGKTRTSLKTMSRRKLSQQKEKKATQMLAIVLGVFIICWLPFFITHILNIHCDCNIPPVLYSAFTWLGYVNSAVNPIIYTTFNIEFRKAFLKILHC
# [8] = target: Sodium-dependent dopamine transporter (Homo sapiens) (UniProt Q01959)
# Chain of Sodium-dependent dopamine transporter (Homo sapiens) (Q01959 whole entry): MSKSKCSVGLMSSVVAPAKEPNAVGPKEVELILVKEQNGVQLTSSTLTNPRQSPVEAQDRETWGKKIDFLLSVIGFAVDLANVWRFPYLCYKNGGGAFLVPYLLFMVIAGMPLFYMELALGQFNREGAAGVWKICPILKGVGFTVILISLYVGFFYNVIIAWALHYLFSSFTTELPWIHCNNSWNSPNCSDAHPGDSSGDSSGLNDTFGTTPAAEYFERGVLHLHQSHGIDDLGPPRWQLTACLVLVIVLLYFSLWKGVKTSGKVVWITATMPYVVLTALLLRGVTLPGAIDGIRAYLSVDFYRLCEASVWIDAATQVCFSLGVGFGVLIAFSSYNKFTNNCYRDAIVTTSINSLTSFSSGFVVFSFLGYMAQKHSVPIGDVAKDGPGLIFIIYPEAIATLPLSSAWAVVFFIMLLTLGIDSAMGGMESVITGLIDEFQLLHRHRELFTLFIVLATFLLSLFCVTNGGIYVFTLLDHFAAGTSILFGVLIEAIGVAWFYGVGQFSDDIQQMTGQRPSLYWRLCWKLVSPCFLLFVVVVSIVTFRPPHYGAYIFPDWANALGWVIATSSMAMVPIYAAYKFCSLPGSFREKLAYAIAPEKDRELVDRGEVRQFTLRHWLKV
# [9] = target: D(1B) dopamine receptor (Homo sapiens) (UniProt P21918)
# Chain of D(1B) dopamine receptor (Homo sapiens) (P21918 whole entry): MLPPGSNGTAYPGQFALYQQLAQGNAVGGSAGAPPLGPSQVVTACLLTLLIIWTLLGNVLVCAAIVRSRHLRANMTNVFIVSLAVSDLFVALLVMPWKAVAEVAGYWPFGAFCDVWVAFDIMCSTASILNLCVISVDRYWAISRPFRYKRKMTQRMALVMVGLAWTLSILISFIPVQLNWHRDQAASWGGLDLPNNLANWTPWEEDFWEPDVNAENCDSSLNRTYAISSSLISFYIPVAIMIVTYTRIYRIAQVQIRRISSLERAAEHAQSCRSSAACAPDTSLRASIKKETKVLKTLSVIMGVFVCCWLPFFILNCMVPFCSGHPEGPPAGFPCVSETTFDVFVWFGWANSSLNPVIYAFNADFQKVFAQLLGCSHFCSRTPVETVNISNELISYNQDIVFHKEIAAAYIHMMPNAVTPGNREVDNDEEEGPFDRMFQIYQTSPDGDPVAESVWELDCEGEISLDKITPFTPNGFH
# [10] = target: T1, 5-hydroxytryptamine receptor 1A (Homo sapiens) (UniProt P08908)
# T1 sequence (whole entry): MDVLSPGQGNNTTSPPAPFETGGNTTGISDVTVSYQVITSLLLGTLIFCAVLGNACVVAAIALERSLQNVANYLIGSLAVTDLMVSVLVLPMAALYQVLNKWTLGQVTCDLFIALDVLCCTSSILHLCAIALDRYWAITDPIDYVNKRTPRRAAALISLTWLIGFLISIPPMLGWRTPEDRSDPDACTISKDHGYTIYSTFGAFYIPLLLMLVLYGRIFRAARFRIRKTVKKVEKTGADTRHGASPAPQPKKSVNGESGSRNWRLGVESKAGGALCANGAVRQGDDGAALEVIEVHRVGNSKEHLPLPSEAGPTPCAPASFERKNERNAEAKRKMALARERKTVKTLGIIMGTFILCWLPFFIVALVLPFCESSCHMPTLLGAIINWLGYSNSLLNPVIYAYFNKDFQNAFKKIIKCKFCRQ
# [11] = target: 5-hydroxytryptamine receptor 6 (Homo sapiens) (UniProt P50406)
# Chain of 5-hydroxytryptamine receptor 6 (Homo sapiens) (P50406 whole entry): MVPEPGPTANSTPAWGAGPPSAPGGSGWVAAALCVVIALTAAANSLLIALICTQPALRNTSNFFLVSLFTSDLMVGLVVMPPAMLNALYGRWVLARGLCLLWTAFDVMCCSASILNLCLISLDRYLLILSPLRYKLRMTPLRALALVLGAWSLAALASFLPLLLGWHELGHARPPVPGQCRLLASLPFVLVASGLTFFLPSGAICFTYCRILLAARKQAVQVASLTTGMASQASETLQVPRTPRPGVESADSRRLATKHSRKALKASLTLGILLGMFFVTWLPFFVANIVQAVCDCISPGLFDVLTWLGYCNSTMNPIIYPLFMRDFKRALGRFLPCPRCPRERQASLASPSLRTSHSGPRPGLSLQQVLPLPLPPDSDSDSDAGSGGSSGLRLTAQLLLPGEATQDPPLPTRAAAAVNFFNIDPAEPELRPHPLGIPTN
# [12] = target: Sodium-dependent noradrenaline transporter (Homo sapiens) (UniProt P23975)
# Chain of Sodium-dependent noradrenaline transporter (Homo sapiens) (P23975 whole entry): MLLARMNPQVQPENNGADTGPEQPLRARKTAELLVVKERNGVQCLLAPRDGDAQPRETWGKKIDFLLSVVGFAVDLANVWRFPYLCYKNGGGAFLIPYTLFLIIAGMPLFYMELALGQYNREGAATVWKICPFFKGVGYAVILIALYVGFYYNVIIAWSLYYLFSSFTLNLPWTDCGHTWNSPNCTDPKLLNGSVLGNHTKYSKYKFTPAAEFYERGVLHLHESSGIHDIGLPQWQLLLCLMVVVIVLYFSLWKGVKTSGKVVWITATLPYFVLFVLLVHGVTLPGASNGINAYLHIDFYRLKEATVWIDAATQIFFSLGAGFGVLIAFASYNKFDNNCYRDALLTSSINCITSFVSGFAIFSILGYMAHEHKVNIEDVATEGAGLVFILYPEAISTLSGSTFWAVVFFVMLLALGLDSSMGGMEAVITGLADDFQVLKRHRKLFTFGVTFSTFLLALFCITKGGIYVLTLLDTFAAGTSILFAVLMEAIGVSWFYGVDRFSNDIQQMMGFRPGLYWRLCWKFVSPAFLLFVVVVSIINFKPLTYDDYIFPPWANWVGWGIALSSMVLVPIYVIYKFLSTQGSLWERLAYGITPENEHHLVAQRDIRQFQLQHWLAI
# [13] = target: Beta-1 adrenergic receptor (Homo sapiens) (UniProt P08588)
# Chain of Beta-1 adrenergic receptor (Homo sapiens) (P08588 whole entry, looked up): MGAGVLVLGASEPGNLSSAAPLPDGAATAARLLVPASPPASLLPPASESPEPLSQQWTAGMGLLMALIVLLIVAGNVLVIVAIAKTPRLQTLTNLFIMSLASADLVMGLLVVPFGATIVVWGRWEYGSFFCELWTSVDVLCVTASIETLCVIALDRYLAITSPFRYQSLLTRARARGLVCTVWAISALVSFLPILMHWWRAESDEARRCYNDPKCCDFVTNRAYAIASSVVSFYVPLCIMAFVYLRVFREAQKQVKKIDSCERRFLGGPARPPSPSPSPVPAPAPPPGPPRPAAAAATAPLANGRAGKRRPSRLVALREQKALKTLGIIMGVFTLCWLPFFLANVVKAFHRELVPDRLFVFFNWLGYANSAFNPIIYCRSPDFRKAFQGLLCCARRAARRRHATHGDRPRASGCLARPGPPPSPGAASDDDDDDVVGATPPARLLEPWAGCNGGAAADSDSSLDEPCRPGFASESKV
# [14] = target: T2, Alpha-1D adrenergic receptor (Homo sapiens) (UniProt P25100)
# T2 sequence (whole entry): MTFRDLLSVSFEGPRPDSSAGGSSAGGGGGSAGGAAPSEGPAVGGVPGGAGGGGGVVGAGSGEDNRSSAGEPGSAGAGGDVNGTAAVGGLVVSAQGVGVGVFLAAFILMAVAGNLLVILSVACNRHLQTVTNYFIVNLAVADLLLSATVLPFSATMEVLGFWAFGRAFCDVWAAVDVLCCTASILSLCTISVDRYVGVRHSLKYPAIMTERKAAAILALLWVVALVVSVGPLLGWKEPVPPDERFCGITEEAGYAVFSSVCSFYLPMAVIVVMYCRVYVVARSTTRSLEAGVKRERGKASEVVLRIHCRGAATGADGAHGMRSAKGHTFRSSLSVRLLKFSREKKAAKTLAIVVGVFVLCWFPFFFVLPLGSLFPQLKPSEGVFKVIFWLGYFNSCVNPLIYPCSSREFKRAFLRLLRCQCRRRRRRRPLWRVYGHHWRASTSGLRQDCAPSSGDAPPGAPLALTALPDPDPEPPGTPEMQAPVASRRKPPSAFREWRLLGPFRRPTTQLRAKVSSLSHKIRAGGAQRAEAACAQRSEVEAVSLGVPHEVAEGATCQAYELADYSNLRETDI
# [15] = target: Delta-type opioid receptor (Homo sapiens) (UniProt P41143)
# Chain of Delta-type opioid receptor (Homo sapiens) (P41143 whole entry): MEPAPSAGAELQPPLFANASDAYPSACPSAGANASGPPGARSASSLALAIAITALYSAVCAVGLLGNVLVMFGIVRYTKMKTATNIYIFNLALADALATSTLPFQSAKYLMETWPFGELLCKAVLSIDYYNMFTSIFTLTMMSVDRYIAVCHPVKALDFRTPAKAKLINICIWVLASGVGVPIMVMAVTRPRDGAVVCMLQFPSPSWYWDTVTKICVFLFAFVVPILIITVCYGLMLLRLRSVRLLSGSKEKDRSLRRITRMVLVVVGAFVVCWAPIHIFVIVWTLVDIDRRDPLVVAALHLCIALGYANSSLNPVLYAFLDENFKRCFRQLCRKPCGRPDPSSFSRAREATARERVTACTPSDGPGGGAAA
# [16] = target: Histamine H3 receptor (Homo sapiens) (UniProt Q9Y5N1)
# [17] = target: T3, Alpha-2B adrenergic receptor (Homo sapiens) (UniProt P18089)
# T3 sequence (whole entry): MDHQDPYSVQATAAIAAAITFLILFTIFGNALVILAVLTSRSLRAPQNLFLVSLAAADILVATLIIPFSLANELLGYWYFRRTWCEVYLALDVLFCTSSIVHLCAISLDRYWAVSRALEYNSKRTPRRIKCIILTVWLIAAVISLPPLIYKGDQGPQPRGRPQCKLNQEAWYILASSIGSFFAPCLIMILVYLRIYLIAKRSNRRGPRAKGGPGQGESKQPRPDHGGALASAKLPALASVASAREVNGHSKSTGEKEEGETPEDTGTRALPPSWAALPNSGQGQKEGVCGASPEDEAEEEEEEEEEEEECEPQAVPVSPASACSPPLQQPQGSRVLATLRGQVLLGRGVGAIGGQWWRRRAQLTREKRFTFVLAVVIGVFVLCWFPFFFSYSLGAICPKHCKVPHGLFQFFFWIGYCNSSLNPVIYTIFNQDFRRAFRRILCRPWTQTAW
# [18] = target: D(1A) dopamine receptor (Homo sapiens) (UniProt P21728)
# [19] = target: T4, Muscarinic acetylcholine receptor M4 (Homo sapiens) (UniProt P08173)
# T4 sequence (whole entry): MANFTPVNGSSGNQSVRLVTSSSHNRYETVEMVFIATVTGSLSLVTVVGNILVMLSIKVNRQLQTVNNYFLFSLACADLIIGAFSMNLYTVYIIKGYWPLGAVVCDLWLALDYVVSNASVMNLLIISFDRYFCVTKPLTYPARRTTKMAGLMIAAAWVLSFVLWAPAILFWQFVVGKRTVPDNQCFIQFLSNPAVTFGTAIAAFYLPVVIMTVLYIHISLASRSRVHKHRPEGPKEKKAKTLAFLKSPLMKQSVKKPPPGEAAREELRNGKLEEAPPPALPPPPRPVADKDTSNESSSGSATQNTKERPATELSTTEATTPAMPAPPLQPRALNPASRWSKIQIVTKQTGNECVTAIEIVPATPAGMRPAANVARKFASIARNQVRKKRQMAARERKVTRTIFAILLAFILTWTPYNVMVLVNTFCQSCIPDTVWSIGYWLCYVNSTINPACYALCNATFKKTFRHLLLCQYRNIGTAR
# [20] = target: 5-hydroxytryptamine receptor 7 (Homo sapiens) (UniProt P34969)
# Chain of 5-hydroxytryptamine receptor 7 (Homo sapiens) (P34969 whole entry): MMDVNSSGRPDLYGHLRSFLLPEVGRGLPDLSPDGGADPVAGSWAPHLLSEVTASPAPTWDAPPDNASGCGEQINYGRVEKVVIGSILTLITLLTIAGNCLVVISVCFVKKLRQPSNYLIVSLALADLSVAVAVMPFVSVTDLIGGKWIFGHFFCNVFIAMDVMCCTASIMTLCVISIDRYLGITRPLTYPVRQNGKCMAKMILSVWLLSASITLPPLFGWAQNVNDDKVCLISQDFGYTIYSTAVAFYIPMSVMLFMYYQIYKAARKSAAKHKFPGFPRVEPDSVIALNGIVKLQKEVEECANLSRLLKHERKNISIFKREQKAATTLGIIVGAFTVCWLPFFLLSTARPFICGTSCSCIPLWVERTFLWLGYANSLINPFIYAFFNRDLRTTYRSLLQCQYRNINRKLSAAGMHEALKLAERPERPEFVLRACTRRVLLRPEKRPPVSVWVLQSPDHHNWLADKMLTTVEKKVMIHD
# Chain of Histamine H4 receptor (Homo sapiens) (Q9H3N8 whole entry): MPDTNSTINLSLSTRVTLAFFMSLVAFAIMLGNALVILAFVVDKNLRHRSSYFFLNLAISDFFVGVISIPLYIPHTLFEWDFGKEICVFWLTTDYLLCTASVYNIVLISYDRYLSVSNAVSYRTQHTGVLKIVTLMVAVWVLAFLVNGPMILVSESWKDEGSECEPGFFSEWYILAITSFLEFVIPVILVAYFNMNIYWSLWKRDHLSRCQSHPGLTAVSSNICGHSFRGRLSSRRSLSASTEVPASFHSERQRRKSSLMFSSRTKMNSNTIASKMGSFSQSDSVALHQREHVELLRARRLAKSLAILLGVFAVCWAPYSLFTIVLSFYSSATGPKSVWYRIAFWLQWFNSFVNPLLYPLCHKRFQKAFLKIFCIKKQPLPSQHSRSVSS
Compound,inhibition [1] [%],inhibition [2] [%],inhibition [3] [%],inhibition [4] [%],inhibition [5] [%],inhibition [6] [%],inhibition [7] [%],inhibition [8] [%],inhibition [9] [%],inhibition [10] [%],inhibition [11] [%],inhibition [12] [%],inhibition [13] [%],inhibition [14] [%],inhibition [15] [%],inhibition [16] [%],inhibition [17] [%],inhibition [18] [%],inhibition [19] [%],inhibition [20] [%]
FC(F)(F)c1c(N2CCC(c3ccccc3)CC2)ccn2c(CC3CC3)nnc12,14.2,-1.74,64.7,10.5,33,44.4,26,54.2,-0.45,-5.72,-9.81,31.6,22.1,-3.82,,,,,,
O=C1N/C(=N/c2ccccc2F)S/C1=C\c1ccc(C(=O)O)cc1,5.3,-4.83,17.9,,42.9,-0.36,0.9,33.1,6.76,2.18,24.9,9.3,9.47,,-1.84,-4.18,-7.72,,,
CC1=C2C[C@H]3[C@@H](CC=C4C[C@@H](O)CC[C@@]43C)[C@@H]2CC[C@]12O[C@@H]1C[C@H](C)CN[C@H]1[C@H]2C,19.6,-2.19,10.2,1.76,40.4,4.16,13.2,,1.59,9.39,,,-3.27,-8.81,-0.87,32.2,,-4.8,-3.11,
COc1ccc(CNC(=O)c2cc(-c3cncc(Cl)c3)cnc2-c2ccccn2)nc1OC,7.89,5.15,-2.32,23.7,17.4,88.7,17.4,36.3,1.18,-8.5,14.4,39,30.3,-7.71,-4.67,-2.53,-7.15,,,
C[C@]1(C(=O)N(CCCC(=O)O)Cc2cccc(Cl)c2)CCN1C(=O)c1csc2ccccc12,29,12.9,32.5,-5.78,15.4,5.34,-7.68,13,-8.24,,3.68,,1.62,3.17,-1.78,-8.42,13.3,-1.97,27.1,
Cc1ccc2c(c1)c1c(n2CCc2ccc(C)nc2)CCN(C)C1,72.3,,71.7,20,95.1,84.6,57.8,,32.6,39.1,90.6,-7.44,,84.6,1.39,16.2,91.7,39.2,5.78,90.7
CO[C@@H]1COCC[C@@H]1N[C@@H]1CC[C@@](C(=O)N2CCc3ncc(C(F)(F)F)cc3C2)(C(C)C)C1,33.7,2.39,81.8,25.9,25.1,4.71,16.4,14.2,0.19,19.6,3.16,,28.2,-8.81,-2.34,4.46,,,,
CN1CCCC(n2nc(Cc3ccc(Cl)cc3)c3ccccc3c2=O)CC1 (stereo unspecified),83.9,1.53,91.9,,,96.7,79.1,25.9,24.1,5.72,74.7,31.6,,88.2,24.1,28.5,79.1,57.1,83.7,80.4
N[C@H](C(=O)O)c1ccc(C(=O)O)c(C(=O)O)c1,62.5,15,6.26,4.93,11.7,5.29,13.7,44,,8.99,4.51,54.5,-5.64,10.3,13.1,11.6,-4.38,,,
O=C(O)Cn1c(C(=O)Nc2nc(-c3ccccc3Cl)cs2)cc2ccccc21,7.11,13.6,9.14,2.51,-9.22,,14.1,47.6,-2.39,-8.88,,,30.9,-3.75,19,-1.46,2.63,-2.06,,
O=c1ccc2ccc(OCCCCN3CCN(c4cccc5sccc45)CC3)cc2[nH]1,100,8,,13.9,100,97.1,104,88.2,88.1,103,101,96.6,,92.5,-1.82,54.5,94.3,82.6,30.5,101
